We go through 70 compounds from patent publication US12428378B2, “Methods and materials for increasing level of phosphorylated AMPK protein” (University of Pittsburgh—Of the Commonwealth System of …, priority 2019, dated 2025).

The subject of the assay is pAMPK. Description: pAMPK immunostaining chemiluminescence assay in Beas2B cells. It counts as cell-based. The note with it: Homo sapiens, BEAS-2B, 18 h, DMEM no glucose media, compounds 3-34, 36-44, 47-60 tested as HCl salts, read-out: efficacy (minimal compound concentration needed to increase pAMPK by 30%). Here is the method:
Beas2B cells were plated in 384 white nunc plate (4000 cells per well) for overnight. Compounds were serially diluted in DMEM no glucose media using the liquid handler. Cells were washed once using Biotek EL406 before compound addition for additional 18 hours. Cells were washed and fixed with PFA before immunostained with pAMPK primary antibody and anti-Rabbit HRP secondary antibody. Finally, 25 μl of ECL reagent will be added to cells, and chemical luminescence signal will be counted using plate reader. Compounds efficacies (μM) were determined by the minimal compound concentration needed to increase pAMPK by 30%. Activity: “+” equals >10 μM; “++” equals between ≤10 μM and >1 μM; and “+++” equals ≤1 μM.

`Fc1ccccc1CN(CCOc1ccc(C(F)(F)F)cc1)Cc1cccnc1` [compound 156]: the EC (30% increase) is no more than 1 µM.

For the compound `Cc1ccccc1CN(CCCOc1ccc(C(F)(F)F)cc1)C(=O)c1cncn1C` [compound 109], the EC (30% increase) is no more than 1 µM.

As to `O=C(CCOc1ccc(C(F)(F)F)cc1)N(Cc1ccccc1)Cc1ccccc1` [compound 35], the EC (30% increase) lay in the range of 1 to 10 µM.

As to `Cc1ccccc1CN(Cc1cncnc1)CC(O)COc1ccc(C(F)(F)F)cc1` (stereo not shown) [compound 23], the EC (30% increase) was no more than 1 µM.

As to `OCC1c2ccccc2CCN1CCCOc1ccc(C(F)(F)F)cc1` (stereo not shown) [compound 188], the EC (30% increase) was no more than 1 µM.

Regarding `Cn1cncc1CN(CCCOc1ccc(C(F)(F)F)cc1)Cc1ccccc1Cl` [compound 122], the EC (30% increase) was no more than 1 µM.

Consider `Cn1cncc1C(=O)N(Cc1ccccc1Cl)CC(O)COc1ccc(C(F)(F)F)cc1` (stereo not shown) [compound 108], for which the EC (30% increase) is no more than 1 µM.

In the case of `Cc1ccccc1CN(Cc1nccs1)CC(O)COc1ccc(C(F)(F)F)cc1` (stereo not shown) [compound 70], the EC (30% increase) was no more than 1 µM.

As to `Cn1cncc1C(=O)N(CCCOc1cnc(C(F)(F)F)nc1)Cc1ccccc1Cl` [compound 168], the EC (30% increase) is greater than 10 µM.

With `O[C@@H](COc1ccc(C(F)(F)F)cc1)CN1Cc2ccccc2C[C@@H]1c1cccnc1` [compound 130], the EC (30% increase) is no more than 1 µM.

In the case of `Cc1ccccc1CN(CCCOc1cnc(C(F)(F)F)nc1)Cc1cccnc1` [compound 169], the EC (30% increase) is no more than 1 µM.

For the compound `OC(COc1ccc(C(F)(F)F)cc1)CN(Cc1ccccn1)Cc1ccccn1` (stereo not shown) [compound 42], the EC (30% increase) was no more than 1 µM.

As to `OC(COc1ccc(C(F)(F)F)cc1)CN(Cc1cccnc1)Cc1ccccc1Cl` (stereo not shown) [compound 25], the EC (30% increase) was no more than 1 µM.

Consider `[2H]C1(c2cncs2)c2ccccc2CCN1CCCOc1ccc(C(F)(F)F)cc1` (stereo not shown) [compound 99], for which the EC (30% increase) is no more than 1 µM.

`CC(CNCC(O)COc1ccc(C(F)(F)F)cc1)(c1ccccc1)c1ccccc1` (stereo not shown) [compound 12]: the EC (30% increase) lay within 1 to 10 µM.

As to `Cc1ccccc1CN(Cc1cccnc1)CC(O)COc1ccc(C(F)(F)F)cc1` (stereo not shown) [compound 8], the EC (30% increase) was no more than 1 µM.

For the compound `FC(F)(F)c1ccc(OCCN(Cc2cccnc2)Cc2ccccc2Cl)cc1` [compound 155], the EC (30% increase) was no more than 1 µM.

In the case of `Cn1cncc1CN(CCOc1ccc(C(F)(F)F)cc1)Cc1ccccc1Cl` [compound 159], the EC (30% increase) was no more than 1 µM.

In the case of `OC(COc1ccc(C(F)(F)F)cc1)CN(Cc1ccccc1)Cc1cccnc1` (stereo not shown) [compound 43], the EC (30% increase) was no more than 1 µM.

Regarding `Cc1ccccc1CN(Cc1ccc[n+]([O-])c1)CC(O)COc1ccc(C(F)(F)F)cc1` (stereo not shown) [compound 51], the EC (30% increase) lay in the range of 1 to 10 µM.

As to `Cc1ccccc1CN(CC(=O)COc1ccc(C(F)(F)F)cc1)C(=O)c1cccnc1` [compound 123], the EC (30% increase) fell in the range of 1 to 10 µM.

Regarding `Fc1ccccc1CN(CCOc1ccc(C(F)(F)F)cc1)Cc1cncs1` [compound 173], the EC (30% increase) is no more than 1 µM.

Consider `COC(=O)C1c2ccccc2CCN1CCCOc1ccc(C(F)(F)F)cc1` (stereo not shown) [compound 187], for which the EC (30% increase) was no more than 1 µM.

Regarding `Cc1ccccc1CN(CC(O)COc1ccc(C(F)(F)F)cc1)C(=O)c1cnco1` (stereo not shown) [compound 79], the EC (30% increase) fell in the range of 1 to 10 µM.

On to `Cc1ccccc1CN(Cc1nccn1C)CC(O)COc1ccc(C(F)(F)F)cc1` (stereo not shown) [compound 72], for which the EC (30% increase) was no more than 1 µM.

Regarding `Cn1ccnc1CN(CCOc1ccc(C(F)(F)F)cc1)Cc1ccccc1F` [compound 158], the EC (30% increase) was no more than 1 µM.

For `O=C(CCOc1ccc(C(F)(F)F)cc1)N1Cc2ccccc2CC1c1cccnc1` (stereo not shown) [compound 62], the EC (30% increase) was 1 to 10 µM.

As for `OC(COc1ccc(C(F)(F)F)cc1)CN1Cc2ccccc2CC1c1cccnc1` (stereo not shown) [compound 56], the EC (30% increase) is no more than 1 µM.

`OC(COc1ccc(C(F)(F)F)cc1)CC1=Nc2ccccc2CC1c1cccnc1` (stereo not shown) [compound 57]: the EC (30% increase) was in the range of 1 to 10 µM.

For `Cc1ccccc1CN(CC(O)COc1ccc(C(F)(F)F)cc1)c1cccc2ncccc12` (stereo not shown) [compound 54], the EC (30% increase) lay in the range of 1 to 10 µM.

As for `Cc1ccccc1CN(CC(C)COc1ccc(C(F)(F)F)cc1)C(=O)c1cncn1C` (stereo not shown) [compound 195], the EC (30% increase) is no more than 1 µM.

For `Cc1ccccc1CN(CC(O)COc1ccc(C(F)(F)F)cc1)C(=O)c1nccs1` (stereo not shown) [compound 84], the EC (30% increase) is no more than 1 µM.

In the case of `CC1(c2cccnc2)Cc2ccccc2CN1CC(O)COc1ccc(C(F)(F)F)cc1` (stereo not shown) [compound 178], the EC (30% increase) was no more than 1 µM.

Consider `O[C@H](COc1ccc(C(F)(F)F)cc1)CN1Cc2ccccc2C[C@@H]1c1cccnc1` [compound 131], for which the EC (30% increase) was no more than 1 µM.

For the compound `Cc1ccccc1CN(CCOc1ccc(C(F)(F)F)cc1)Cc1cccnc1` [compound 154], the EC (30% increase) is no more than 1 µM.

As for `OC(COc1ccc(C(F)(F)F)cc1)CN(CC1CCCCC1)CC1CCCCC1` (stereo not shown) [compound 3], the EC (30% increase) was in the range of 1 to 10 µM.

With `OC(COc1ccc(C(F)(F)F)cc1)CN(Cc1ccccc1)C1(c2cccnc2)CC1` (stereo not shown) [compound 48], the EC (30% increase) was no more than 1 µM.

Turning to `Cc1ccc2c(c1)CC(c1nccn1C)N(CC(O)COc1ccc(C(F)(F)F)cc1)C2` (stereo not shown) [compound 189], the EC (30% increase) is greater than 10 µM.

As for `Cc1ncccc1CN(CC(O)COc1ccc(C(F)(F)F)cc1)C(=O)c1cncn1C` (stereo not shown) [compound 146], the EC (30% increase) is greater than 10 µM.

`[2H]C([2H])(c1cccnc1)N(Cc1ccccc1)CC(O)COc1ccc(C(F)(F)F)cc1` (stereo not shown) [compound 47]: the EC (30% increase) was no more than 1 µM.

`Cc1ccncc1CN(Cc1cnccc1C)CC(O)COc1ccc(C(F)(F)F)cc1` (stereo not shown) [compound 33]: the EC (30% increase) was 1 to 10 µM.

In the case of `CC(c1cccnc1)N(Cc1ccccc1)CC(O)COc1ccc(C(F)(F)F)cc1` (stereo not shown) [compound 46], the EC (30% increase) is no more than 1 µM.

As to `Cn1cncc1C(=O)N(Cc1ccccc1Cl)CC(C)(C)COc1ccc(C(F)(F)F)cc1` [compound 194], the EC (30% increase) was no more than 1 µM.

On to `Cn1cncc1C(=O)N(Cc1ccccc1Cl)CC(C)(O)COc1ccc(C(F)(F)F)cc1` (stereo not shown) [compound 201], for which the EC (30% increase) fell in the range of 1 to 10 µM.

`Cc1ccccc1CN(CC(O)COc1ccc(C(F)(F)F)cc1)C(=O)c1cncn1C` (stereo not shown) [compound 81]: the EC (30% increase) is no more than 1 µM.

Take `Cc1ccccc1CN(CCOc1ccc(C(F)(F)F)cc1)Cc1cncn1C` [compound 171]: the EC (30% increase) was in the range of 1 to 10 µM.

With `Cc1ccccc1CN(Cc1ccc(C(F)(F)F)nc1)CC(O)COc1ccc(F)cc1` (stereo not shown) [compound 44], the EC (30% increase) was no more than 1 µM.

On to `Cn1cncc1C(=O)N(CC(=O)COc1ccc(C(F)(F)F)cc1)Cc1ccccc1Cl` [compound 161], for which the EC (30% increase) was no more than 1 µM.

Regarding `FC(F)(F)c1ccc(OCCCN(Cc2cncs2)Cc2ccccc2Cl)cc1` [compound 104], the EC (30% increase) was no more than 1 µM.

As to `OC(COc1cccnc1)CN(Cc1ccccc1)Cc1ccccc1` (stereo not shown) [compound 9], the EC (30% increase) is greater than 10 µM.

`OC(COc1ccc(C(F)(F)F)cc1)CN(Cc1cccnc1)Cc1cccnc1` (stereo not shown) [compound 7]: the EC (30% increase) is no more than 1 µM.

As to `Cc1ccccc1CN(CC(O)COc1ccc(C(F)(F)F)cc1)C(=O)c1cnn(C)c1` (stereo not shown) [compound 82], the EC (30% increase) was no more than 1 µM.

In the case of `Cc1ccccc1CN(Cc1cnccc1C(F)(F)F)CC(O)COc1ccccc1` (stereo not shown) [compound 87], the EC (30% increase) was in the range of 1 to 10 µM.

As for `[2H]C([2H])(c1cccnc1)N(Cc1ccccc1Cl)CC(O)COc1ccc(C(F)(F)F)cc1` (stereo not shown) [compound 102], the EC (30% increase) was no more than 1 µM.

With `Cn1cncc1C(=O)N(Cc1c(Cl)cccc1Cl)CC(O)COc1ccc(C(F)(F)F)cc1` (stereo not shown) [compound 144], the EC (30% increase) lay within 1 to 10 µM.

For the compound `Cn1ccnc1C(=O)N(Cc1ccccc1Cl)CC(O)COc1ccc(C(F)(F)F)cc1` (stereo not shown) [compound 91], the EC (30% increase) was no more than 1 µM.

Take `OC(COc1ccc(C(F)(F)F)cc1)CN1CCc2ccccc2C1c1cccnc1` (stereo not shown) [compound 95]: the EC (30% increase) was no more than 1 µM.

Turning to `FC(F)(F)c1ccc(OCCN(Cc2cncs2)Cc2ccccc2Cl)cc1` [compound 172], the EC (30% increase) is no more than 1 µM.

In the case of `FC(F)(F)c1ccc(OCCCN2Cc3ccccc3C[C@H]2c2cccnc2)cc1` [compound 151], the EC (30% increase) was no more than 1 µM.

For the compound `Cc1ccccc1CN(CC(O)COc1ccccc1)C(=O)c1ccc(C(F)(F)F)nc1` (stereo not shown) [compound 88], the EC (30% increase) was no more than 1 µM.

Regarding `Cn1cncc1C(=O)N(Cc1cccnc1)CC(C)(C)COc1ccc(C(F)(F)F)cc1` [compound 193], the EC (30% increase) was no more than 1 µM.

In the case of `OC(COc1ncccn1)CN(Cc1ccccc1)Cc1ccccc1` (stereo not shown) [compound 15], the EC (30% increase) is greater than 10 µM.

In the case of `FC(F)(F)c1ccc(OCCCc2nc3ccccc3cc2-c2ccccc2)cc1` [compound 92], the EC (30% increase) lay within 1 to 10 µM.

As to `Cn1cncc1C(=O)N(Cc1ccccc1Cl)CC(O)COc1cnc(C(F)(F)F)nc1` (stereo not shown) [compound 148], the EC (30% increase) was greater than 10 µM.

`Cc1ccccc1CN(CC(O)COc1ccc(C(F)(F)F)cc1)C(=O)c1cn(C)cn1` (stereo not shown) [compound 80]: the EC (30% increase) was in the range of 1 to 10 µM.

`Cc1ccccc1CN(CCCOc1ccc(C(F)(F)F)cc1)Cc1cccnn1` [compound 183]: the EC (30% increase) is no more than 1 µM.

With `Cc1ccccc1CN(Cc1cc[nH]n1)CC(O)COc1ccc(C(F)(F)F)cc1` (stereo not shown) [compound 37], the EC (30% increase) is 1 to 10 µM.

In the case of `Cc1ccccc1CN(Cc1cccc(C#N)c1)CC(O)COc1ccc(C(F)(F)F)cc1` (stereo not shown) [compound 50], the EC (30% increase) was greater than 10 µM.

Take `Cc1ccccc1CN(Cc1ncc[nH]1)CC(O)COc1ccc(C(F)(F)F)cc1` (stereo not shown) [compound 36]: the EC (30% increase) was no more than 1 µM.

Consider `OC(COc1ccc(C(F)(F)F)cc1)CN1Cc2ccccc2CC1c1cncs1` (stereo not shown) [compound 98], for which the EC (30% increase) lay in the range of 1 to 10 µM.
